From PMC8780785 (Molecules, 2022)
In brackets after ≈: the same amount, converted by molar mass.

Tests used:
Vibrio fisheri = assay: Environmental toxicity, 81.9% Basic Test Microtox protocol; type: cell-based; details: 5 min
From the text: Toxicity was expressed as half maximal effective concentration (EC50) according to the 81.9% Basic Test Microtox protocol. All reagents and Vibrio […] bacterium were purchased from […]), the Polish representative of Modern Water Company (New Castle, DE, USA).

[1] = Cytotoxicity regardless of assay method and cells used; type: cell-based; details: human; regardless of the toxicity assay method and the cells used; read-out: IC50 (cytotoxicity), lowest value
Procedure: For the MTT and LDH tests, cells at the density of 1 × 10^5 cells /mL were seeded on 96-well plates. After 24 h incubation, the medium was replaced with a fresh one with 2% of FBS supplemented with ANS or not (control).
MTT assay: This method is used to determine cell viability and proliferation. It is based on the measurement of the oxidoreductive activity of mitochondria with the yellow dye 3-(4,5-dimethylthiazo-2-yl)-2,5-diphenyl-tetrazolium bromide (MTT) which is metabolised in living cells to purple formazan crystals. After 24 h incubation with the examined compounds, 25 µL of MTT (5 mg/mL) was introduced onto each well and incubated for 3 h. Then, to stop the reaction and dissolve the formazan crystals, 100 µL of a 10 % SDS solution in 0.01 N HCL was added. The following day, the absorbance was determined spectrophotometrically at 570 nm using a microplate reader (Spark, Tecan, Austria).
Results obtained from three independent experiments were reported as cell viability (%) calculated according to the formula: cell viability (%) = (100 − Abssample × Abscontrol^−1) × 100% […]

[2] = tested on: S. epidermidis ATCC 14990; assay: MIC and MBC determination (CLSI protocol), S. epidermidis; type: cell-based; details: Staphylococcus epidermidis, ATCC14990, read-out: MBC S. epidermidis
Procedure: (§1) The stock solutions (10 mg/mL) of the tested substances were prepared in distilled water and afterwards diluted to the appropriate concentration in Mueller–Hinton Bullion. In each well of a 96-well plate, 300 µL of the mixture was inoculated with 10 µL of the bacterial culture (final density~10^2 cfu/mL). […] Then, 10 µL of the suspension from each well was transferred to a fresh sterile medium and incubated for another 24 h at 37 °C. The lack of turbidity indicated bactericidal activity of the investigated substances and the MBC value was thus determined.

[3] = Cyclic voltammetry of the ANS substrate; type: physicochemical; details: 1 mM substrate, 0.1 M sodium tartrate buffer pH 4.5
Procedure: All measurements were performed for the 1 mM substrate dissolved in 0.1 M sodium tartrate buffer at pH 4.5 in triplicate at room temperature 22 ± 3 °C. The potential was scanned with the scan speed of 50 mV/s from −400 to 1500 mV vs. Ag/AgCl/KClsat after holding the electrochemical system at the initial potential for 10 s.

[4] = tested on: human normal colon fibroblast cell line CCD-18Co; assay: Cytotoxicity, MTT assay, fibroblasts; type: cell-based; details: 24 h, read-out: IC50 Fibroblasts MTT
Procedure: (§2) Cell cultures: The research was conducted on human normal colon epithelial cell line CCD-841 CoTr (ACCT, No. CRL-1807) and human normal colon fibroblast cell line CCD-18Co (ATCC, No. CRL-1459) obtained from the American Type Culture Collection (ATCC, Manassas, VA, USA). The cells were grown in a mixture of DMEM and RPMI 1640 media (1:1) containing 10% (v/v) of foetal bovine serum (FBS) and antibiotics (100 U/mL penicillin and 100 μg/mL streptomycin) and kept in standard conditions (at 37 °C in humidified atmosphere of 5% CO2). For the MTT and LDH tests, cells at the density of 1 × 10^5 cells /mL were seeded on 96-well plates. […] MTT assay: This method is used to determine cell viability and proliferation. […] Then, to stop the reaction and dissolve the formazan crystals, 100 µL of a 10 % SDS solution in 0.01 N HCL was added. The following day, the absorbance was determined spectrophotometrically at 570 nm using a microplate reader (Spark, Tecan, Austria). Results obtained from three independent experiments were reported as cell viability (%) calculated according to the formula: cell viability (%) = (100 − Abssample × Abscontrol^−1) × 100% All analyses were performed in triplicate and presented as mean ± SD. The IC50 value was calculated by nonlinear regression using a curve fitting program in GraphPad Prism 5.0.

[5] = tested on: human normal colon epithelial cell line CCD-841 CoTr; assay: Cytotoxicity, MTT assay, colon epithelial cells; type: cell-based; details: CCD-841, 24 h, read-out: IC50 Colon Epithelial Cells MTT
Procedure: as §2

[6] = Chemiluminescence assay (luminol, antioxidant); details: concentration reducing 50% of radicals
Procedure: Chemiluminescence Assay: The assay of the antioxidant properties of the tested dyes was based on the measurement of luminol chemiluminescence induced by hydroxyl radicals in the Fe^2+-EDTA-H2O2-luminol system. […] Afterwards, the samples were placed in a Berthold–Lumat LB 9506 luminometer, and the solutions of reagents were added automatically as follows: 1.5 mM Fe^2+-EDTA (100 µL) and 4.4 mM H2O2 (100 µL). The chemiluminescence was measured with (I1) or without (I0) the addition of the tested dye. The inhibitory rate (IR) was calculated according to the following equation: IR(%)=(1−I1/Io)×100 All analyses allowing determination of antioxidative properties were performed in triplicate in room temperature 22 ± 3 °C. […] Trolox was used as positive controls for each technique.

laccase (LAC) = details: read-out: KM (Michaelis–Menten constant); 0.1 M sodium-tartrate buffer pH 4, 440 nm, Lineweaver–Burk
From the text: The reaction mixture was scanned to determine the λ max cha-racterizing the main reaction product od dye using a Cary 50 Bio spectrophotometer (Varian, Palo Alto, CA, USA).

[7] = tested on: human normal colon epithelial cell line CCD-841 CoTr; assay: Cytotoxicity, LDH assay, colon epithelial cells; type: cell-based; details: after 24 h
Procedure: (§3) Cell cultures: The research was conducted on human normal colon epithelial cell line CCD-841 CoTr (ACCT, No. CRL-1807) and human normal colon fibroblast cell line CCD-18Co (ATCC, No. CRL-1459) obtained from the American Type Culture Collection (ATCC, Manassas, VA, USA). The cells were grown in a mixture of DMEM and RPMI 1640 media (1:1) containing 10% (v/v) of foetal bovine serum (FBS) and antibiotics (100 U/mL penicillin and 100 μg/mL streptomycin) and kept in standard conditions (at 37 °C in humidified atmosphere of 5% CO2). For the MTT and LDH tests, cells at the density of 1 × 10^5 cells /mL were seeded on 96-well plates. […] Lactate dehydrogenase(LDH) assay: This assay measures lactate dehydrogenase (LDH) released to the medium by cells with a damaged plasma membrane. […] Absorbance was recorded on a microplate reader (Spark, Tecan, Austria) at 490 nm with a reference wavelength at 690 nm. Results obtained from three independent experiments were reported as cell viability (%) calculated according to the formula: cell viability (%) = (100 − Abssample × Abscontrol^−1) × 100% All analyses were performed in triplicate and presented as mean ± SD. The IC50 value was calculated by nonlinear regression using a curve fitting program in GraphPad Prism 5.0.

[8] = Antioxidative potential over the three methods (ABTS, DPPH, luminol); details: range depending on the method used
Procedure: Chemiluminescence Assay: The assay of the antioxidant properties of the tested dyes was based on the measurement of luminol chemiluminescence induced by hydroxyl radicals in the Fe^2+-EDTA-H2O2-luminol system. […] Afterwards, the samples were placed in a Berthold–Lumat LB 9506 luminometer, and the solutions of reagents were added automatically as follows: 1.5 mM Fe^2+-EDTA (100 µL) and 4.4 mM H2O2 (100 µL). The chemiluminescence was measured with (I1) or without (I0) the addition of the tested dye. The inhibitory rate (IR) was calculated according to the following equation: IR(%)=(1−I1/Io)×100 DPPH assay: […] […] The change in absorbance caused by the tested dyes (XP) and ultrapure water as a negative control (XC) was monitored at 515 nm using a multiplate reader (Spark, Tecan, Austria). Simultaneously, the absorbance of the dye at a wavelength of 515 nm was investigated as a control of the dye–colour correction (XD). The radical reduction rate (DR) was calculated according to the following equation: DR(%)=(XC−(XP−XD)/XC)×100% ABTS assay: In this method, the ability of the tested dye to reduce the dark green ABTS radical cation (ABTS^●+) was evaluated. […] Next, the ABTS^●+ solution was diluted with PBS to an absorbance of 0.7 at 734 nm measured using a Tecan plate reader (Spark, Tecan, Austria). […]

[9] = tested on: human normal colon fibroblast cell line CCD-18Co; assay: Cytotoxicity, LDH assay, fibroblasts; type: cell-based; details: after 24 h
Procedure: as §3

ABTS assay (antioxidant) = details: concentration reducing 50% of radicals
Procedure: ABTS assay: In this method, the ability of the tested dye to reduce the dark green ABTS radical cation (ABTS^●+) was evaluated. First, 5 mM phosphate buffer pH 7.4 (PBS) and 7.4 mM ABTS solution were prepared. During the ABTS solution preparation, ABTS was dissolved and ABTS^●+ was generated by reacting with K2S2O8 (2.4 mM final concentration) in a dark bottle at room temperature for 16–18 h. Next, the ABTS^●+ solution was diluted with PBS to an absorbance of 0.7 at 734 nm measured using a Tecan plate reader (Spark, Tecan, Austria). ABTS^●+ (990 µL) was added to the tested dye sample (10 µL) in a 96-well plate and incubated for 10 min at room temperature. The tested dye concentration was in the range from 0.01 to 1 mg/mL. Simultaneously, the negative control (XC) and the control of dye colour correction (XD) were incubated. The change in the absorbance of ABTS^●+ with the dye sample (XP) and controls were measured in the plate reader at 734 nm and the ABTS^●+ reduction rate (AR) was calculated according to the following equation: AR=(XC−(XP−XD)/XC)×100% All analyses allowing determination of antioxidative properties were performed in triplicate in room temperature 22 ± 3 °C. […] Trolox was used as positive controls for each technique.

S. aureus ATCC 25923 = assay: MIC and MBC determination (CLSI protocol), S. aureus; type: cell-based; details: Staphylococcus aureus, ATCC25923, read-out: MBC S. aureus
Procedure: as §1

DPPH assay (antioxidant) = details: concentration reducing 50% of radicals
Procedure: DPPH assay: […] Then, 100 µL of the tested dye was added to a 96-well plate containing 100 µL of a freshly prepared DPPH solution in 95% ethanol. […] The mixture was incubated at room temperature for 20 min. The change in absorbance caused by the tested dyes (XP) and ultrapure water as a negative control (XC) was monitored at 515 nm using a multiplate reader (Spark, Tecan, Austria). Simultaneously, the absorbance of the dye at a wavelength of 515 nm was investigated as a control of the dye–colour correction (XD). The radical reduction rate (DR) was calculated according to the following equation: DR(%)=(XC−(XP−XD)/XC)×100% All analyses allowing determination of antioxidative properties were performed in triplicate in room temperature 22 ± 3 °C. […] Trolox was used as positive controls for each technique.

O=S(=O)(O)c1cccc2cccc(Nc3ccccc3)c12 [ANS, 8-anilino-1-naphthalenesulfonic acid]
EC50 (Vibrio fisheri): 19 µg/mL (≈ 63.5 µM)
IC50 at 24 h [1]: ≥ 247 µg/mL
MBC [2]: 400 µg/mL (≈ 1340 µM)
Eo vs. NHE (oxidation potential) [3]: 0.768 V
IC50 [4]: 295 µg/mL (≈ 985 µM)
IC50 [5]: 322 µg/mL (≈ 1080 µM)
IC50 Luminol [6]: 6 µg/mL (≈ 20 µM)
Km (laccase (LAC)): 435 µM
IC50 [7]: 382 µg/mL (≈ 1280 µM)
IC50 values (antioxidative potential) [8]: 0.027 to 153 µg/mL
IC50 [9]: 247 µg/mL (≈ 825 µM)
IC50 ABTS (ABTS assay (antioxidant)): 0.027 µg/mL (≈ 0.0902 µM)
MBC (S. aureus ATCC 25923): 400 µg/mL (≈ 1340 µM)
IC50 DPPH (DPPH assay (antioxidant)): 153 µg/mL (≈ 511 µM)
